Results reported in patent US12005033B2, “Compositions comprising mixtures of semifluorinated alkanes” (Novaliq GmbH, priority 2012, dated 2024).

Experiment: Liquid droplet spread area on a glass surface
Format: physicochemical
Conditions: 2 minutes after application of 50 μL of liquid to a glass surface
For `CCCCCCCCC(F)(F)C(F)(F)C(F)(F)C(F)(F)C(F)(F)C(F)(F)F` [F6H8, F(CF2)6(CH2)8H], the “Liquid covered surface area” value was 12.89 ± 0.94 cm^2. In the case of `FC1(F)C(F)(F)C(F)(F)C2(F)C(F)(F)C(F)(F)C(F)(F)C(F)(F)C2(F)C1(F)F` (stereo not shown) [Perfluorodecalin, reference compound], the “Liquid covered surface area” value is reported as 1.45 ± 0.02 cm^2. With `CCCCCCCCC` [Nonane, reference compound] the “Liquid covered surface area” value was 5.20 ± 0.18 cm^2. With `CCCCCC(F)(F)C(F)(F)C(F)(F)C(F)(F)F` [F4H5, F(CF2)4(CH2)5H] the “Liquid covered surface area” value was 7.54 ± 0.33 cm^2.
